In US4835185A, “Immunomodulator for improving commercial performance of domestic animals” (Iowa State University Research Foundation, Inc., priority 1987, dated 1989):

Columns and labels:
Plasma Cortisol = assay: Feedlot steers: plasma cortisol; type: in vivo, steers (cattle); settings: 150 days
From the text: (§1) Seventy-two medium-frame steers, with an average weight of 578 lbs., were allotted to 12 pens of 6 animals each. A common basal diet was fed ad libitum to all cattle. This consisted of 48.9% cracked corn, 24.4% ground corn cobs, 17.8% expeller Soybean meal, 7.0% molasses (liquid), 1.3% limestone, 0.25% dicalcium phosphate, 2% salt, 0.02% trace mineral premix, and 0.1% vitamin A premix for the first 58 days of the experiment, and was changed to 54.3% cracked corn and 12.8% expeller soybean meal for the remaining 103 days of the experiment. Three pens were assigned to each treatment. The treatments consisted of four levels of Ca-KIC in a pelleted supplement: 0%, 0.02%, 0.07%, and 0.20% of the basal diet (0.05% control pellets, 0.04% KIC pellets, 0.14% KIC pellets, and 0.40% KIC pellets). The pellets were preweighted and top-dressed on the basal diet twice daily. After 58 days, the cattle on the 0.20% KIC were removed from the experiment. The cattle were not implanted with a growth promotant nor were ionophores included in the diet. […] Loin eye area and fat thickness over the loin were measured on each carcass. […]
KIC was obtained from SOBAC, Paris, France. Zein was purchased from Freeman Industries, Tuckahoe, N.Y. Each experiment was statistically analyzed by analysis of variance with three pens per treatment. […]

[1] = Feedlot steers: death, sickness, condemned livers; type: in vivo, steers (cattle)
From the text: as §1, with “diet. The cattle were placed in the feedlot and fed a growing ration for 5 weeks prior to the start of the experiment. The cattle were weighed on 2 consecutive days at the beginning and end of the experiment, and every 14 days during the trial.” for “diet.”

[2] = Dairy Cattle Trial: nitrogen balance, milk production and composition; type: in vivo, Holstein and Brown Swiss cows (cattle)
From the text: Eight Holstein and four Brown Swiss cows were assigned randomly (blocking for lactation number and breed) to either a control or treatment group. Four of the Holsteins and two of the Brown Swiss were in their first lactation and all cows were between 134-283 days into lactation (mid-lactation). Cows were milked twice daily (2:30 a.m. and 2:00 p.m.).
Cows were fed ad libitum a total mixed ration twice daily (7:30 a.m. and 5:30 p.m.) with feed refusals collected before the morning feeding. The diet consisted of 31% chopped alfalfa hay, 18% corn silage, and […] (as a % of the dry matter). The grain mix was calculated to contain 1.55 Mcal NE/kg dry matter and 16% crude protein. A major portion of the grain protein was from expeller processed soybean meal with higher than usual bypass characteristics. The cows were consuming protein in excess of their normal requirements. The grain ration contained an estimated 10% leucine (total protein basis), and the complete diet contained an estimated 9% leucine (total protein basis).
During the treatment period half the cows received Na-KIC at 0.75% of the diet dry matter. KIC was fed in a mixture which consisted of Na-KIC, corn gluten meal, hydrogenated soy oil and paraffin in a ratio of 2:1.0:0.1:0.1. The mixture was extruded and formed into crumbles. At least part of the KIC may have escaped rumen degradation with this treatment. Additionally, 100 units of tocopherol were added per gram of Na--KIC to prevent oxidation of KIC. Control animals were fed an equivalent amount of the same mixture but without KIC added.
During the first two weeks of the experiment (control period; designated weeks -2 and -1), all cows received the same diet. The trial period extended over the next three weeks (weeks 1, 2, 3) during which cows received either the KIC or control mix top-dressed on their diets twice per day (half the dose in the morning, half in the evening). Throughout the experiment, daily milk yield, milk composition, and feed consumption was measured for each cow. At the end of the control period and at the end of the treatment period, uninary catheters were inserted and total urine and fecal collections were made for 48 hrs. Results of production and nitrogen balance studies were analyzed statistically using each cow as her own control. The trial effect was measured by subtracting the average control period value from the value during the treatment period. ANOVA was used to detect differences between the KIC-fed and control groups.

[3] = Na-KIC 0.75% of diet dry matter, pre 186

CC(C)CC(=O)C(=O)O [KIC, alpha-ketoisocaproate]
Plasma Cortisol (Plasma Cortisol; .02% dietary KIC (0%: 4.08)): 3.74 µg/dL | Plasma Cortisol (Plasma Cortisol; .07% dietary KIC (0%: 4.08)): 3.2 µg/dL | animals that died or were treated for sickness ([1]; KIC-treated groups (control: one died, one treated)): no animals | condemned liver ([1]; bovine, in vivo): one | Feces output, Change ([2]; KIC group, control +1): -6 g N/day | Milk output, Change ([2]; KIC group, control +3): +9 g N/day | Urine output, Change ([2]; KIC group, control +15): 0 g N/day | Body storage (N balance), Change ([2]; KIC group, control +18): +26 g N/day | Feed intake, Change ([2]; KIC group, control +37): +28 g N/day | Milk fat yield, Change ([2]; KIC group, control +.00): +.09 kg/day | Milk fat percent, Change ([2]; KIC group, control +.03): +.21% | Milk protein percent, Change ([2]; KIC group, control +.13): +.11% | Milk yield, Change ([2]; KIC group, control -.13): +.97 kg/day | Milk protein percent, Post ([2]; Na-KIC 0.75% of diet dry matter, pre 3.35): 3.46% | Milk fat percent, Post ([2]; Na-KIC 0.75% of diet dry matter, pre 4.07): 4.27% | Milk yield, Post ([2]; Na-KIC 0.75% of diet dry matter, pre 23.0): 23.9 kg/day | Body storage (N balance), Post ([2]; Na-KIC 0.75% of diet dry matter, pre 34): 60 g N/day | Milk output, Post ([2]; Na-KIC 0.75% of diet dry matter, pre 131): 140 g N/day | Feces output, Post [2, 3]: 180 g N/day | Urine output, Post [2, 3]: 186 g N/day | Feed intake, Post ([2]; Na-KIC 0.75% of diet dry matter, pre 538): 566 g N/day | Milk fat yield, Post ([2]; Na-KIC 0.75% of diet dry matter, pre printed 92): 1.00 kg/day | milk fat yield increase ([2]; above controls, p<0.02): 10% | higher milk yields ([2]; vs control cows): +5% | higher percent milk fat ([2]; vs control cows, p<0.04): +4% | Body storage (N balance), % Change ([2]; vs control, NS): +24% | Body storage (N balance), KIC effect ([2]; vs control, NS): +8 g N/day | Feces output, % Change ([2]; vs control, NS): -4% | Feces output, KIC effect ([2]; vs control, NS): -8 g N/day | Feed intake, % Change ([2]; vs control, NS): -2% | Feed intake, KIC effect ([2]; vs control, NS): -9 g N/day | Milk output, % Change ([2]; vs control, NS): +5% | Milk output, KIC effect ([2]; vs control, NS): +6 g N/day | Milk protein percent, KIC effect ([2]; vs control, NS): -.03% | Urine output, % Change ([2]; vs control, NS): -85 | Urine output, KIC effect ([2]; vs control, NS): -15 g N/day | Milk fat yield, % Change ([2]; vs control, p < .01): +10.4% | Milk fat yield, KIC effect ([2]; vs control, p < .01): +.09 kg/day | Milk fat percent, % Change ([2]; vs control, p < .04): +4.3% | Milk fat percent, KIC effect ([2]; vs control, p < .04): +.17% | Milk yield, % Change ([2]; vs control, p < .15): +5.1% | Milk yield, KIC effect ([2]; vs control, p < .15): +1.10 kg/day
